In patent US12485154B2 (priority 2019, dated 2025):

System: new influenza virus (A/California/04/2009(H1N1))
Format: in vivo
Conditions: H1N1-infected BALB/c mice (6 per group), observed 14 days after infection; ginseng concentrates 10 mg/kg/day for 14 days before and one week after inoculation; Tamiflu 2 mg/kg/day

`CCOC(=O)C1=C[C@@H](OC(CC)CC)[C@H](NC(C)=O)[C@@H](N)C1` [Tamiflu] was tested, and the Fatality was 0%.
